This note sets out measurements from article PMC8964421, “Widespread occurrence of covalent lysine–cysteine redox switches in proteins” (Nature Chemical Biology, 2022).

The target in the assay is T1, NgTAL; transaldolase from Neisseria gonorrhoeae (Neisseria gonorrhoeae, UniProt Q5F6E9).
T1 construct: gene tal; recombinant from pET SUMO vector, purified
T1 sequence (Q5F6E9 1-351): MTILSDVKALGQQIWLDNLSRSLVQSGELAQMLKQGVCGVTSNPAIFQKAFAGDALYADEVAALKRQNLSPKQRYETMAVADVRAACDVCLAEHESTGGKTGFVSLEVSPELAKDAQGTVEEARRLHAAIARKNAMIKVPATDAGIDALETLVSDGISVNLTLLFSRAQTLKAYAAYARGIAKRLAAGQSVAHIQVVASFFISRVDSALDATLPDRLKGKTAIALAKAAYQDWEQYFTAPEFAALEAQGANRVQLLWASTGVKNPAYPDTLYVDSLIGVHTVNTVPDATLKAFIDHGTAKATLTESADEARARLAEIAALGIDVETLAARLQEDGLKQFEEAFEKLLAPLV
Nature of the assay: coupled enzymatic assay at […] nm, steady-state kinetics. The format is biochemical. Particulars: co-substrate D-erythrose-4-phosphate; reducing (1 mM DTT) and non-reducing conditions; varied substrate not named in main text.

On to `O=P(O)(O)OC[C@H]1OC(O)(CO)[C@@H](O)[C@@H]1O` (stereo partly drawn) [D-fructose-6-phosphate], for which the Michaelis constant entry is “monitors the conversion of ketose donor D-fructose-6-phosphate and aldose acceptor D-erythrose-4-phosphate into products”.
